Experiment: Inhibition of NS5A in HCV genotype 1b assessed as decrease in viral replication

- EC50: 4 pM
SMILES: COC(=O)N[C@H](C(=O)N1CCC[C@H]1c1nc(-c2ccc(-c3ccc(-c4c[nH]c([C@@H]5CCCN5C(=O)[C@@H](NC(=O)OC)C(C)C)n4)cc3)cc2)c[nH]1)C(C)C [BMS-790052]

From BindingDB's records for doi:10.1021/acsmedchemlett.9b00286 (Bristol Myers Squibb, 2019)
